# Experimental data published in article PMC11129186, “New Improved cGMP Analogues to Target Rod Photoreceptor Degeneration” (Journal of Medicinal Chemistry, 2024).
# Like-named read-outs stand apart in the source and are kept apart here.
# Columns and labels:
# [1] = system: 661W-A11 cells stressed with zaprinast; experiment: Dose-response curves of cell viability (MTT) under zaprinast stress; format: cell-based, mouse; details: for EC50: read-out: EC50 of cell viability
# Description: For this analysis, we used the 661W-A11 cells stressed with zaprinast and exposed them to scaling concentrations of either dithio-CN03 or SP-CN03 or CN03-Na^+. The effects were evaluated by the cell viability MTT assay (Figure 5). […] Nevertheless, CN03-Na^+ and SP-CN03 reached up to 70–80% cell viability, while dithio-CN03 could protect rod photoreceptors to almost 100% cell viability at the highest doses (Figure 5). Although dithio-CN03 was considered more hydrophobic, and its entrance in the cells could have been facilitated by this feature, the calculated EC50 was nonetheless similar to more hydrophilic analogues.
# 661W-A11 cells were seeded in 96-well plates at a density of 6000 cells/well, and the following day they were pretreated with scaling concentrations of either CN03-Na^+ or SP-CN03 or dithio-CN03 for 2 h and then stressed with zaprinast 200 μM in the presence of the compounds for 48 h. Cell viability was assessed by MTT assay (see above for detailed procedure). OD was measured at 570 nm. Data were plotted and EC50 calculated using GraphPad Prism version 7.
# [2] = system: primary photoreceptor cells derived from rd1 mutant mice; experiment: Cell death TUNEL assay in primary photoreceptors; format: cell-based, mouse; details: for neuroprotective effect, cell death (TUNEL): 50 μM added at day 10 of differentiation, read at day 11
# Source text: To address this possible limitation of the RP model, we tested the CN03 analogues in another RP in vitro cellular model, previously validated for the analysis of cGMP analogues.[10] This model is based on the primary cell culture and differentiation of cells derived from rd1 mutant eyes. The rd1 mouse is one of the best characterized murine models of RP. It carries a mutation in the Phosphodiesterase 6b (Pde6b) gene. Lack of PDE6 function causes high intracellular levels of cGMP in rod photoreceptor cells.[26],[9] […] CN03-Na^+, SP-CN03, and dithio-CN03 were administered to the culture of rd1 mutant cells at a concentration of 50 μM at day 10 of differentiation. The concentration of the compounds and the time of treatment were chosen based on the previously published study in which cGMP inhibitory analogues were tested in this type of primary photoreceptors.[10] Cell death was then analyzed by the TUNEL assay at day 11 of in vitro differentiation.
# rd1 mutant mice were purchased from Charles River Italy. The protocol was approved by the Ethical Committee of the University of Modena and Reggio Emilia and by the Italian Ministero della Salute (150/2021-PR). Primary neurospheres were derived from the eyes of rd1 mutant mice, as previously reported.[32] Retinal stem cells in neurospheres were differentiated into photoreceptors, as previously reported.[10]rd1 mutant photoreceptor cells underwent spontaneous cell death after differentiation for 11 days. At day 10, 50 μM of either CN03-Na^+ or SP-CN03 or dithio-CN03 were added to the cells in culture and cell death was assessed 1 day later (day 11 of differentiation) by TUNEL assay (see above for detailed procedure).
# [3] = system: 661W-A11 cells stressed with zaprinast; experiment: Cell viability MTT assay in cells stressed with zaprinast; format: cell-based, mouse; details: 50 μM compound, 200 μM zaprinast for 48 h
# Description: The neuroprotective activity of the newly developed compounds was then evaluated in 661W-A11 cells stressed with zaprinast. Viability was assessed by an MTT assay.
# (§1) 661W-A11 cells were seeded in 96-well plates at a density of 6000 cells/well or in 24-well plates at a density of 20,000 cells/well. Twenty-four h after seeding, cells were pretreated with 50 μM of either CN03-Na^+ or CN03 or SP-CN03 or oxo-CN03 or dithio-CN03 for 2 h, followed by 200 μM zaprinast treatment for 48 h in the presence of the compounds. Control groups were treated with an equal volume of vehicle, H2O or DMSO.
# 661W-A11 cells were cultured on 96-well plates at a density of 6000 cells/well. After compound treatments, the culture medium was replaced with medium containing 1 mg/mL of MTT (Sigma) and cells were cultured for 90 min at 37 °C. Viability was assessed by MTT assay (see above for detailed procedure). OD was measured at 570 nm.
# [4] = system: 661W-A11 cells stressed with zaprinast; experiment: Cell death TUNEL assay in cells stressed with zaprinast; format: cell-based, mouse; details: 50 μM compound, 200 μM zaprinast for 48 h
# Description: Viability assay cannot discriminate between protection from cell death and possible increased proliferation induced by the treatment. To discriminate between these two responses, we analyzed cell death by the TUNEL assay that detects dying cells based on fragmented chromatin. The TUNEL assay confirmed data obtained with the MTT assay (Figure 3B,C).
# as §1
# 661W-A11 cells were seeded in 24-well plates at a density of 20,000 cells/well. After treatments, cells were fixed with 2% paraformaldehyde for 10 min and permeabilized with 1 M Na^+ citrate and 0.1% Triton X-100 on ice for 2 min. Cells were incubated with TUNEL solution “In situ Cell Death Detection Kit” TMR Red (Roche) for 30 min at 37 °C, and cell nuclei were stained with 0.1 μg/mL 4′,6-diamidin-2-fenilindolo (DAPI). […] The quantification of percentage of dead cells was based on the ratio of TUNEL-labeled cells on the total number of cells (DAPI-labeled).
# PDE6 purified enzyme = molecular target: PDE6 purified enzyme; set-up: method as in PMID 16123402; details: cited from earlier work
# [5] = system: photoreceptor cells of murine models of RP; set-up: method as in PMID 29531030; details: in vivo delivered; cited from earlier work
# CNGC = system: CNGC; set-up: method as in PMID 29531030; details: in vitro and in vivo; cited from earlier work
# PKG = system: PKG; set-up: method as in PMID 29531030; details: in vitro and in vivo; cited from earlier work
smiles,measurement,setting,value
O=c1c2nc(Br)n([C@@H]3O[C@@H]4CO[P@@]([O-])(=S)O[C@H]4[C@H]3O)c2nc2[nH]c(-c3ccccc3)cn12.[Na+] [CN03-Na^+],cell viability reached at the highest doses,[1],70–80%
same,EC50,"[1]; 200 μM zaprinast for 48 h, doses 1 μM to 1 mM, MTT",16.9 µM
same,"neuroprotective effect, cell death (TUNEL)",[2],decreased the percentage of cell death
"O=c1c2nc(Br)n([C@@H]3O[C@@H]4COP(=O)(O)O[C@H]4[C@H]3O)c2nc2[nH]c(-c3ccccc3)cn12 [oxo-CN03, Triethylammonium 8-Bromo-β-phenyl-1,N^2-ethenoguanosine-3′,5′-cyclicmonophosphate]",protective effect on cell viability (MTT),[3],"All CN03 compounds, except oxo-CN03, were able to improve cell viability"
same,protection from cell death (TUNEL),[4],failure of oxo-CN03 to protect
CCCOc1ccccc1-c1nc2nn[nH]c2c(=O)[nH]1 [zaprinast],Ki,PDE6 purified enzyme,30 nM
"O=c1c2nc(Br)n([C@@H]3O[C@@H]4CO[P@@](O)(=S)O[C@H]4[C@H]3O)c2nc2[nH]c(-c3ccccc3)cn12 [CN03, RP-8-Br-PET-cGMPS]",preservation of photoreceptor cells,[5],could preserve photoreceptor cells of murine models of RP
same,block of Ca2+ influx through the CNGC,CNGC,block Ca^2+ influx through the CNGC
same,interference with PKG activity,PKG,interfere with PKG activity
"O=c1c2nc(Br)n([C@@H]3O[C@@H]4CO[P@](O)(=S)O[C@H]4[C@H]3O)c2nc2[nH]c(-c3ccccc3)cn12 [SP-CN03, Triethylammonium SP-8-Bromo-β-phenyl-1,N^2-ethenoguanosine-3′,5′-cyclicmonophosphorothioate]",protective effect on cell viability (MTT),[3],increasing cell viability
same,cell viability reached at the highest doses,"[1]; 200 μM zaprinast for 48 h, MTT",70–80%
same,EC50,"[1]; Mus musculus, 661W-A11, 48 h",16 µM
same,"neuroprotective effect, cell death (TUNEL)",[2],neuroprotective effect similar to CN03-Na^+
same,toxicity to photoreceptors,"[2]; 50 μM, 24 h",not toxic to photoreceptors
